Columns and labels:
[1] = test system: rat primary cortical neurons; assay: Neurite outgrowth in beta-amyloid (Aβ25-35) intoxicated rat primary cortical neuron culture; assay type: cell-based; settings: Aβ25-35 20 μM, 2 days; drug added 1 hour before
[2] = test system: rat primary cortical neurons; assay: LDH release in Aβ25-35 intoxicated rat primary cortical neuron culture; assay type: cell-based; settings: Aβ25-35 20 μM, 2 days; drug added 1 hour before
Procedure: Primary rat cortical neurons are cultured as described by Singer et al., 1999. Briefly pregnant female rats of 15 days gestation are killed by cervical dislocation (Rats Wistar; Janvier) and the foetuses removed from the uterus. The cortexes are removed and placed in ice-cold medium of Leibovitz (L15; Invitrogen) containing 1% of Penicillin-Streptomycin (PS; Invitrogen) and 1% of bovine serum albumin (BSA; Sigma). Cortexes are dissociated by trypsinisation for 20 min at 37° C. (Trypsin EDTA 1×; Invitrogen) diluted in PBS without calcium and magnesium. The reaction is stopped by the addition of Dulbecco's modified Eagle's medium (DMEM; Invitrogen) containing DNAase I grade II (0.1 mg/ml; Roche Diagnostics) and 10% of foetal calf serum (FCS; Invitrogen). Cells are then mechanically dissociated by 3 passages through a 10 ml pipette. Cells are then centrifuged at 180×g for 10 min at 10° C. […] Viable cells are counted in a Neubauer cytometer using the trypan blue exclusion test. Cells are seeded at a density of 30,00-cells/well in 96-well plates (wells are pre-coated with poly-L-lysine (10 μg/ml; […] After 6 days of culture, cells are incubated with drugs (5 concentrations). After 1 hour, cells are intoxicated by 20 μM of β-amyloid (25-35; Sigma) in defined medium without BDNF but together with drugs. Cortical neurons are intoxicated for 2 days. After 2 days of culture, the supernatant is collected and analyzed with the Cytotoxicity Detection Kit (LDH, Roche Applied Sciences). This colorimetric assay for the quantification of cell death is based on the measurement of lactate dehydrogenase (LDH) activity released from the cytosol of damaged cells into the supernatant. The optic density (DO) is assessed by spectrophotometer at 492 nm wavelength by a multiscan apparatus (Thermo, Ref Ascent). […] Two days after this incubation, LDH release in the culture medium is quantified, reflecting the level of cell death.

[3] = test system: NGF-differentiated PC12 cells; assay: MTT viability of NGF-differentiated PC12 after Aβ25-35 intoxication; assay type: cell-based, rat; settings: Aβ25-35 10 μM, 24 hours, drug added 1 hour before
Procedure: PC12 (Pheochromocytoma Rat, ATCC ref: CRL-1721) cells from [NT] CRL-1721) were rapidly thawed in 37° C. water. The supernatant was immediately put in 9 ml of a PC12 proliferation medium containing Dulbecco's modified Eagle's medium DMEM-F12 (Pan Biotech ref: P04-41450) with 15% heat-inactivated horse serum (Invitrogen ref: 16050-130), 2.5% of fetal bovine serum (FBS; Invitrogen ref: 16000-036), 1% of Penicillin 10,000 U/ml and Streptomycin 10 mg/ml (PS; Pan Biotech ref: P06-07100) and 1% of L-glutamine 200 mM (Pan Biotech ref: P04-80100). Cells were centrifuged (800 rounds/min, 4° C. for 5 min) and added in 5 ml PC12 proliferation medium, viable cells were counted with a Malassez cell using the […] exclusion test (Sigma). Then the cells were seeded at 3.10^4 cells per cm^2 in PC12 proliferation medium in 75 cm^2 plastic flasks (Greiner Ref: 658175) precoated with poly-L-lysine (10 μg/ml, Sigma Ref: P2636). Medium was changed every other day. After 3 days of culture, when cells reached 80% of confluence, they were washed in HBSS without calcium and magnesium (Pan Biotech Ref: […] P10-023100). The enzymatic reaction was stopped with PC12 proliferation medium added by 0.5 mg/ml of DNAse 1 grade 2 (Pan Biotech Ref: 760-37780100). […]

[4] = test system: rat primary cortical neurons; assay: LDH release, human Aβ1-42 toxicity on rat primary cortical cells; assay type: cell-based; settings: 0.32 nM alone; Aβ1-42 2.5 μM
Procedure: Primary rat cortical neurons are cultured as described previously.
Briefly, Aβ1-42 peptide was reconstituted in defined culture medium at 40 μM (mother solution) and was slowly shacked at +37° C. for 3 days in the dark for aggregation. The control medium was prepared in the same conditions.
After 10 days of neuron culture, the drug was solved in culture medium (+0.1% DMSO) and then pre-incubated with neurons for 1 hour before the Aβ1-42 application (in a final volume per culture well of 100 μl). […] Cortical neurons were intoxicated for 24 hours. Three separate cultures were performed per condition, 6 wells per condition.
Estradiol-β at 100 and 150 nM were used as a reference test compound and BDNF at 50 ng/ml was used as a positive control. Three separate cultures were performed per condition, […].
Estradiol-β and BDNF were solved in culture medium and pre-incubated for 1 h before the aggregated amyloid-β1-42 application.
Lactate Dehydrogenase (LDH) Activity Assay
This colorimetric assay for the quantification of cell toxicity is based on the measurement of lactate dehydrogenase (LDH) activity released from the cytosol of dying cells into the supernatant.
All values are expressed as mean±s.e.mean of the 3 cultures (n=6 per condition). Statistical analyses were done on the different conditions (ANOVA followed by the Dunnett's test when it was allowed, Statview software version 5.0).

| Structure (SMILES) | Prevention of Aβ25-35 intoxication, neurite outgrowth (neurite length) [1] | Prevention of Aβ25-35 intoxication, LDH release [2] | Prevention of Aβ25-35 intoxication, cell viability (MTT) [3] | Prevention of Aβ25-35 intoxication, cell viability (MTT) ([3]; listed as prilocaine) | Effect on Aβ1-42 intoxication, LDH release, drug alone [4] |
| --- | --- | --- | --- | --- | --- |
| NS(=O)(=O)Cc1noc2ccccc12 [Zonisamide] | significantly prevented | significantly prevented | – | – | – |
| CCCNC(C)C(=O)Nc1ccccc1C (stereo not drawn) [Prilocain, Prilocaine] | – | – | significantly prevented | strong neuroprotective effect | – |
| CC(=O)NCCCS(=O)(=O)O [Acamprosate] | significantly prevented | – | – | – | no significant effect |

Source: patent US9387206B2, “Therapeutic approaches for treating Alzheimer's disease” (PHARNEXT, priority 2009, dated 2016)
